Data from ChEMBL document CHEMBL4311976, “Design, synthesis and biological evaluation of novel 7H-pyrrolo[2,3-d]pyrimidine derivatives as potential FAK inhibitors and anticancer agents” (Eur J Med Chem, 2019).

Experiments:
Assay in all cases: cells
MDA-MB-231 = conditions: Homo sapiens, MDA-MB-231, 72 h
Description: Antiproliferative activity against human MDA-MB-231 cells assessed as reduction in cell viability after 72 hrs by MTT assay

HK-2 = conditions: Homo sapiens, HK-2, 72 h
Description: Cytotoxicity against human HK2 cells assessed as reduction in cell viability after 72 hrs by MTT assay

A549 = conditions: Homo sapiens, A549, 72 h
Description: Antiproliferative activity against human A549 cells assessed as reduction in cell viability after 72 hrs by MTT assay

Compound | IC50 (MDA-MB-231) [µM] | IC50 (HK-2) [µM] | IC50 (A549) [µM]
CP(C)(=O)c1ccccc1Nc1nc(Nc2ccc(N3CCNCC3)cc2)nc2[nH]ccc12 | 4.35 | 8.33 | 0.53
CP(C)(=O)c1ccccc1Nc1nc(Nc2ccc(C(=O)NC3CCNCC3)c(F)c2)nc2[nH]ccc12 | 4.17 | 21.9 | 1.61
CP(C)(=O)c1ccccc1Nc1nc(Nc2ccc(C(=O)NC3CCOCC3)cc2)nc2[nH]ccc12 | 6.53 | 9.75 | 3.72
COc1cc(C(=O)NC2CCNCC2)c(F)cc1Nc1nc(Nc2ccccc2P(C)(C)=O)c2cc[nH]c2n1 | 11.3 | > 25 | 2.24
CP(C)(=O)c1ccccc1Nc1nc(Nc2cnn(C3CCNCC3)c2)nc2[nH]ccc12 | 14.1 | > 25 | 14.5
CNC(=O)c1ccccc1Nc1nc(Nc2ccc(N3CCOCC3)cc2OC)ncc1Cl | 4.24 | 8.2 | 1.02
CP(C)(=O)c1ccccc1Nc1nc(Nc2ccc(C(=O)N3CCOCC3)cc2)nc2[nH]ccc12 | 14.3 | 8.89 | 9.8
CP(C)(=O)c1ccccc1Nc1nc(Nc2cnn(CC(F)F)c2)nc2[nH]ccc12 | 3.43 | 4.4 | 7.53
COCCn1cc(Nc2nc(Nc3ccccc3P(C)(C)=O)c3cc[nH]c3n2)cn1 | 8.18 | > 25 | 17.4

More lines, in order of falling IC50 (MDA-MB-231), values ahead:

IC50 (MDA-MB-231) [µM] | IC50 (HK-2) [µM] | IC50 (A549) [µM] | Compound
17.8 | > 25 | 2.93 | CP(C)(=O)c1ccccc1Nc1nc(Nc2ccc(C(=O)NC3CCNCC3)cc2)nc2[nH]ccc12
12.4 | > 25 | 2.48 | CP(C)(=O)c1ccccc1Nc1nc(Nc2ccc(C(=O)N[C@H]3CCCNC3)cc2)nc2[nH]ccc12
8.8 | > 25 | 9.88 | CP(C)(=O)c1ccccc1Nc1nc(Nc2ccc(C(=O)N3CCNCC3)cc2)nc2[nH]ccc12
5.53 | 14.4 | 7.01 | CP(C)(=O)c1ccccc1Nc1nc(Nc2cnn(C3CCOCC3)c2)nc2[nH]ccc12
4.17 | 9.16 | 3.45 | CNC(=O)c1ccc(Nc2nc(Nc3ccccc3P(C)(C)=O)c3cc[nH]c3n2)cc1
1.31 | 4.77 | 1.02 | CCNS(=O)(=O)c1ccc(Nc2nc(Nc3ccccc3P(C)(C)=O)c3cc[nH]c3n2)cc1
